Assays:
[1] = target: T1, zebrafish α9α10 (1:2) nAChR (Danio rerio, UniProt A0A8M9PIT7+Q1LY90); assay: two-electrode voltage clamp, peak inward current, Hill fit; type: cell-based
T1 sequence (A0A8M9PIT7 20-580): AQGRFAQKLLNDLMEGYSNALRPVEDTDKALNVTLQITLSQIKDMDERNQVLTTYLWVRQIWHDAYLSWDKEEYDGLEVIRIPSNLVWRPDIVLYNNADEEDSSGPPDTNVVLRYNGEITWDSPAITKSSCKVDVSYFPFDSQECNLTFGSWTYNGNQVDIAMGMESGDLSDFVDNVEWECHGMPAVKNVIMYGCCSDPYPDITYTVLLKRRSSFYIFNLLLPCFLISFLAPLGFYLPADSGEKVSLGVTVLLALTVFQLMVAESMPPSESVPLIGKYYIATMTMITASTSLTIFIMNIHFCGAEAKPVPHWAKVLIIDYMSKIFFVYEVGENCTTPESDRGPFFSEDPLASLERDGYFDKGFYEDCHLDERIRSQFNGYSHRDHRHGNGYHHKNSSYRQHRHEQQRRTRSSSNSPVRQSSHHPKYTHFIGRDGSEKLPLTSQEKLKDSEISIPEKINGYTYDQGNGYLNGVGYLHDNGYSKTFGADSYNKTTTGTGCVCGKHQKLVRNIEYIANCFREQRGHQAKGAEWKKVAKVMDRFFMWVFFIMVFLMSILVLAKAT
T1 sequence (Q1LY90 26-527): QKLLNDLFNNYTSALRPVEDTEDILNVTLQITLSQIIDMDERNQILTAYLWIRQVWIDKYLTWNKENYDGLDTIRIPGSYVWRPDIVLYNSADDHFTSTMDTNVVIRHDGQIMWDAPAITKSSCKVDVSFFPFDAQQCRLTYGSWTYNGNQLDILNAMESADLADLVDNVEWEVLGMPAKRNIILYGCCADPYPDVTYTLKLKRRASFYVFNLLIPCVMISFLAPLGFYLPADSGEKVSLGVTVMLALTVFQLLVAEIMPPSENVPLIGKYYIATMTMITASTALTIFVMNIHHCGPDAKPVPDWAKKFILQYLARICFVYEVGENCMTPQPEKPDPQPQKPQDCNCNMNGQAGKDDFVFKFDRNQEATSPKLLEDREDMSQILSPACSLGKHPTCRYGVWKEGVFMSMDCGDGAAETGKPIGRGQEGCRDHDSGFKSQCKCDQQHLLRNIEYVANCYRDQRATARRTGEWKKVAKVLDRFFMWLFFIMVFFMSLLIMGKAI

[2] = target: T2, zebrafish α9 nAChR (homomeric) (Danio rerio, UniProt A0A8M9PIT7); assay: as above; type: cell-based
T2 sequence (A0A8M9PIT7 20-580): T1 sequence (A0A8M9PIT7 20-580)

EC50 [1]: 437 µM | EC50 [2]: 11.7 µM
SMILES: CC(=O)OCC[N+](C)(C)C [ACh, acetylcholine]

Reference: article doi:10.1101/2020.07.09.196246v1 (biorxiv, 2020)
